Reference: US9695155B2, “Herbicidal substituted pyrimidinyloxy benzene compounds” (E. I. DU PONT DE NEMOURS AND COMPANY, priority 2013, dated 2017)

Columns and labels:
[1] = test system: pigweed; assay: Test A preemergence; assay type: in vivo, Amaranthus retroflexus; conditions: for Pigweed plant response rating: 0 to 100 scale, 0 no effect, 100 complete control, approx. 10 days
Procedure, shortened: (§1)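 Compounds in non-phytotoxic solvent with surfactant applied as soil spray preemergence, or postemergence to plants 2-10 cm at one- to two-leaf stage, in loam/sand. After approximately 10 days in greenhouse, injury rated visually versus untreated controls, 0 (no effect) to 100 (complete control).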

[2] = test system: large (Lg) crabgrass; assay: Test C postemergence; assay type: in vivo, Digitaria sanguinalis
Procedure, shortened: (§2)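 Plants were kept under greenhouse conditions for 13–15 days following spray. Pre-emergent application went to soil (loam–sand), post-emergent to foliage at 1–4 leaves. Evaluation: visual, percent control against untreated checks.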

[3] = test system: ragweed; assay: Test C postemergence; assay type: in vivo, Ambrosia elatior
Procedure, shortened: as §2

[4] = test system: pigweed; assay: Test A postemergence; assay type: in vivo, Amaranthus retroflexus
Procedure, shortened: as §1

[5] = test system: barnyardgrass; assay: Test B flooded paddy test; assay type: in vivo, Echinochloa crus-galli; conditions: Flood, 250 g ai/ha, 0 to 100 scale where 0 is no effect and 100 is complete control
Procedure, shortened: (§3)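 Evaluation is visual, against untreated controls, 13 to 15 days after treatment. Before treatment, plants reached the 2-leaf stage; pots were then flooded 3 cm deep, compound was added to the water, and that level was maintained. Ratings run 0 to 100, with 100 meaning complete control.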

[6] = test system: barnyardgrass; assay: Test A postemergence; assay type: in vivo, Echinochloa crus-galli
Procedure, shortened: as §1

[7] = test system: morningglory; assay: Test A preemergence; assay type: in vivo, Ipomoea spp.; conditions: for Morningglory plant response rating: 0 to 100 scale, 0 no effect, 100 complete control, approx. 10 days
Procedure, shortened: as §1

[8] = test system: velvetleaf; assay: Test A postemergence; assay type: in vivo, Abutilon theophrasti
Procedure, shortened: as §1

[9] = test system: rice; assay: Test B flooded paddy test; assay type: in vivo, Oryza sativa; conditions: Flood, 250 g ai/ha, 0 to 100 scale where 0 is no effect and 100 is complete control
Procedure, shortened: as §3

[10] = test system: blackgrass; assay: Test C postemergence; assay type: in vivo, Alopecurus myosuroides
Procedure, shortened: as §2

[11] = 16 g ai/ha, postemergence, visual rating, scale 0 to 100 (0 no effect, 100 complete control), 13 to 15 days
[12] = Postemergence, 31 g ai/ha, scale 0 to 100 (0 no effect, 100 complete control), 13 to 15 days
[13] = Postemergence, 62 g ai/ha, scale 0 to 100 (0 no effect, 100 complete control)
[14] = 1000 g ai/ha, 0 to 100 scale, 0 no effect, 100 complete control
[15] = 125 g ai/ha, 0 to 100 scale where 0 is no effect and 100 is complete control
[16] = 500 g ai/ha, 0 to 100 scale where 0 is no effect and 100 is complete control

Question: How did the “Pigweed plant response rating” value ([1]; 1000 g ai/ha) turn out when `Clc1cnc(Oc2cccc(Br)c2-n2cc(Br)cn2)nc1` [Compound 65] was run?
Answer: The value was 100.

Question: And the “Crabgrass, Large plant response rating” value [2, 11]?
Answer: Its value is 5.

Question: And the “Plant response rating (0 to 100), Crabgrass, Large” value ([2]; 125 g ai/ha, postemergence)?
Answer: The value was 5.

Question: What about the “Plant response rating, Crabgrass, Large” value [2, 12] of the same compound?
Answer: Its value is 5.

Question: What about the “Plant response rating, Crabgrass, Large” value [2, 13] of the same compound?
Answer: Its value is 5.

Question: And the “Plant response rating (0 to 100), Ragweed” value ([3]; 125 g ai/ha, postemergence)?
Answer: Its value is 35.

Question: And the “Plant response rating, Ragweed” value [3, 12]?
Answer: Its value is 5.

Question: And the “Plant response rating, Ragweed” value [3, 13]?
Answer: The value was 25.

Question: And the “Plant response rating, Pigweed” value [4, 14]?
Answer: The value was 100.

Question: What about the “Plant response rating, Barnyardgrass” value [5] of the same compound?
Answer: Its value is 0.

Question: What about the “Plant response rating, Barnyardgrass” value [6, 14] of the same compound?
Answer: The value was 100.

Question: And the “Morningglory plant response rating” value ([7]; 1000 g ai/ha)?
Answer: The value was 100.

Question: And the “Plant response rating, Velvetleaf” value [8, 14]?
Answer: The value was 100.

Question: What about the “Plant response rating, Rice” value [9] of the same compound?
Answer: The value was 0.

Question: What about the “Blackgrass plant response rating” value [10, 11] of the same compound?
Answer: Its value is 0.

Question: And the “Plant response rating (0 to 100), Blackgrass” value ([10]; 125 g ai/ha, postemergence)?
Answer: The value was 15.

Question: And the “Plant response rating, Blackgrass” value [10, 12]?
Answer: Its value is 10.

Question: What about the “Plant response rating, Blackgrass” value [10, 13] of the same compound?
Answer: Its value is 40.

Question: What does the source list for `Fc1cccc(Oc2ncc(Cl)cn2)c1-n1cc(Br)cn1` [Compound 178, 2-[2-(4-bromo-1H-pyrazol-1-yl)-3-fluorophenoxy]-5-chloropyrimidine]?
Answer: Pigweed plant response rating (0 to 100 scale) ([1]; 125 g ai/ha): 100; pest or weed control at 500 g/ha ([1]; Amaranthus retroflexus, pre-emergence, 240 h, 500 g ai/ha, 0 to 100 scale where 0 is no effect and 100 is complete control, read-out: Pigweed plant response rating): 100%; pest or weed control at 16 g/ha ([2]; Digitaria sanguinalis, post-emergence, 16 g ai/ha, postemergence, 0 is no effect, 100 is complete control, read-out: Plant response rating (0 to 100), Crabgrass, Large): 5%; pest or weed control at 31 g/ha ([2]; Digitaria sanguinalis, post-emergence, 31 g ai/ha, postemergence, visual rating, scale 0 to 100 (0 no effect, 100 complete control), 13 to 15 days, read-out: Crabgrass, Large plant response rating): 10%; pest or weed control at 125 g/ha ([2]; Digitaria sanguinalis, post-emergence, 125 g ai/ha, postemergence, visual rating, scale 0 to 100 (0 no effect, 100 complete control), read-out: Plant response rating, Crabgrass, Large): 10%; pest or weed control at 62 g/ha ([2]; Digitaria sanguinalis, post-emergence, Postemergence, 62 g ai/ha, scale 0 to 100 (0 no effect, 100 complete control), read-out: Plant response rating, Crabgrass, Large): 5%; Ragweed plant response rating ([3]; 31 g ai/ha, postemergence, visual rating, scale 0 to 100 (0 no effect, 100 complete control), 13 to 15 days): 55; pest or weed control at 16 g/ha ([3]; Ambrosia artemisiifolia, post-emergence, 16 g ai/ha, postemergence, 0 is no effect, 100 is complete control, read-out: Plant response rating (0 to 100), Ragweed): 20%; pest or weed control at 125 g/ha ([3]; Ambrosia artemisiifolia, post-emergence, 125 g ai/ha, postemergence, visual rating, scale 0 to 100 (0 no effect, 100 complete control), read-out: Plant response rating, Ragweed): 65%; pest or weed control at 62 g/ha ([3]; Ambrosia artemisiifolia, post-emergence, Postemergence, 62 g ai/ha, scale 0 to 100 (0 no effect, 100 complete control), read-out: Plant response rating, Ragweed): 30%; pest or weed control at 500 g/ha ([4]; Amaranthus retroflexus, post-emergence, 500 g ai/ha, 0 to 100 scale where 0 is no effect and 100 is complete control, read-out: Plant response rating, Pigweed): 100%; pest or weed control at 125 g/ha ([4]; Amaranthus retroflexus, post-emergence, 240 h, 125 g ai/ha, 0 to 100 scale where 0 is no effect and 100 is complete control, read-out: Pigweed plant response rating): 100%; pest or weed control at 250 g/ha ([5]; Echinochloa crus-galli, read-out: Plant response rating, Barnyardgrass): 0%; pest or weed control at 125 g/ha ([6]; Echinochloa crus-galli, post-emergence, 240 h, 125 g ai/ha, 0 to 100 scale where 0 is no effect and 100 is complete control, read-out: Barnyardgrass plant response rating): 70%; pest or weed control at 500 g/ha ([6]; Echinochloa crus-galli, post-emergence, 240 h, 500 g ai/ha, 0 to 100 scale where 0 is no effect and 100 is complete control, read-out: Plant response rating, Barnyardgrass): 100%; Morningglory plant response rating (0 to 100 scale) ([7]; 125 g ai/ha): 10; pest or weed control at 500 g/ha ([7]; Ipomoea, pre-emergence, 240 h, 500 g ai/ha, 0 to 100 scale where 0 is no effect and 100 is complete control, read-out: Morningglory plant response rating): 90%; Velvetleaf plant response rating [8, 15]: 100; pest or weed control at 500 g/ha ([8]; Abutilon theophrasti, post-emergence, 240 h, 500 g ai/ha, 0 to 100 scale where 0 is no effect and 100 is complete control, read-out: Plant response rating, Velvetleaf): 100%; plant injury at 250 g/ha ([9]; Oryza sativa, read-out: Plant response rating, Rice): 0%; pest or weed control at 16 g/ha ([10]; Alopecurus myosuroides, post-emergence, 16 g ai/ha, postemergence, 0 is no effect, 100 is complete control, read-out: Plant response rating (0 to 100), Blackgrass): 0%; pest or weed control at 31 g/ha ([10]; Alopecurus myosuroides, post-emergence, 31 g ai/ha, postemergence, visual rating, scale 0 to 100 (0 no effect, 100 complete control), 13 to 15 days, read-out: Blackgrass plant response rating): 5%; pest or weed control at 125 g/ha ([10]; Alopecurus myosuroides, post-emergence, 125 g ai/ha, postemergence, visual rating, scale 0 to 100 (0 no effect, 100 complete control), read-out: Plant response rating, Blackgrass): 60%; pest or weed control at 62 g/ha ([10]; Alopecurus myosuroides, post-emergence, Postemergence, 62 g ai/ha, scale 0 to 100 (0 no effect, 100 complete control), read-out: Plant response rating, Blackgrass): 20%

Question: Which “Plant response rating, Pigweed” value [1, 15] does the source give for `N#Cc1cccc(Oc2ncc(Cl)cn2)c1-n1cnc(Br)c1` [Compound 74] here?
Answer: The value was 100.

Question: What about the “Pigweed plant response rating” value ([1]; 500 g ai/ha) of the same compound?
Answer: The value was 100.

Question: What about the “Plant response rating (0 to 100), Crabgrass, Large” value ([2]; 125 g ai/ha, postemergence) of the same compound?
Answer: Its value is 15.

Question: What about the “Plant response rating (0 to 100), Crabgrass, Large” value ([2]; 250 g ai/ha, postemergence) of the same compound?
Answer: Its value is 20.

Question: And the “Plant response rating, Crabgrass, Large” value [2, 12]?
Answer: Its value is 5.

Question: What about the “Plant response rating, Crabgrass, Large” value [2, 13] of the same compound?
Answer: The value was 5.

Question: And the “Plant response rating (0 to 100), Ragweed” value ([3]; 125 g ai/ha, postemergence)?
Answer: The value was 40.

Question: What about the “Plant response rating (0 to 100), Ragweed” value ([3]; 250 g ai/ha, postemergence) of the same compound?
Answer: Its value is 60.

Question: And the “Plant response rating, Ragweed” value [3, 12]?
Answer: Its value is 40.

Question: What about the “Plant response rating, Ragweed” value [3, 13] of the same compound?
Answer: The value was 40.

Question: And the “Plant response rating, Pigweed” value [4, 15]?
Answer: The value was 100.

Question: And the “Plant response rating, Pigweed” value [4, 16]?
Answer: Its value is 100.

Question: What about the “Plant response rating, Barnyardgrass” value [5] of the same compound?
Answer: Its value is 0.

Question: What about the “Plant response rating, Barnyardgrass” value [6, 15] of the same compound?
Answer: Its value is 90.

Question: What about the “Plant response rating, Barnyardgrass” value ([6]; 500 g ai/ha, 0 to 100 scale, 0 no effect, 100 complete control) of the same compound?
Answer: The value was 90.

Question: And the “Plant response rating, Morningglory” value [7, 15]?
Answer: Its value is 70.

Question: And the “Morningglory plant response rating” value ([7]; 500 g ai/ha)?
Answer: Its value is 100.

Question: And the “Plant response rating, Velvetleaf” value [8, 15]?
Answer: Its value is 90.

Question: And the “Plant response rating, Velvetleaf” value [8, 16]?
Answer: Its value is 100.

Question: And the “Plant response rating, Rice” value [9]?
Answer: The value was 0.

Question: And the “Plant response rating (0 to 100), Blackgrass” value ([10]; 125 g ai/ha, postemergence)?
Answer: The value was 0.

Question: What about the “Plant response rating (0 to 100), Blackgrass” value ([10]; 250 g ai/ha, postemergence) of the same compound?
Answer: The value was 5.

Question: And the “Plant response rating, Blackgrass” value [10, 12]?
Answer: Its value is 0.

Question: And the “Plant response rating, Blackgrass” value [10, 13]?
Answer: Its value is 0.
